Read-outs that look alike come from different tables or passages of the source. Some results are limits rather than exact numbers.

Series [1] in a line: Pharmacokinetic (PK) experiment in rats by gavage. The class given is in vivo. The conditions noted are these: rat, plasma, po, male SD rats, 20 mg/kg; for AUC(0-t): read-out: AUC0-24.
In series [2] the test system is H358 xenograft tumor. Description: H358 human non-small cell lung cancer subcutaneous mouse xenograft model, anticancer activity. The series is classed as in vivo, BALB/c nude mice. Particulars: 100 mg/kg, po, qd, 26 days. Here is the method:
(§1) In this experiment, the anticancer activities of compounds 73-1 and 90-1 in the subcutaneous tumor model of H358 human non-small cell lung cancer xenograft mice, and the dose-response relationship of compound 73-1 in inhibiting the growth of H358 xenograft tumors were investigated. […] When H358 cells were cultured to a sufficient number, cells were collected. […] Vernier calipers were used to measure the size of the tumor. The formula for calculating the tumor volume is: tumor volume=(length×width^2)/2, and the formula for calculating the relative tumor proliferation rate T/C value is: T/C (%)=100×ΔT/ΔC (ΔT>0) or T/T (%)=100×ΔT/T0 (ΔT<0). ΔT is the difference of tumor volume in the treatment group, ΔC is the difference of tumor volume in the vehicle control group, and T0 is the tumor volume in the treatment group before administration.
The dosage of the all groups, except the vehicle control group, was 100 mg/kg, 10 mL/kg orally administered by gavage, once a day. […] All the groups were administered continuously for 26 days.
A general note: A xenograft is tissue or cells of one species grown in another, often human tumour cells in immunodeficient mice.

Series [3] has as its system non-small cell lung cancer (NSCLC). The conditions noted are these: cited from earlier work.
In series [4] the test system is mouse tumors. The conditions noted are these: mouse experiments, alone or combined; cited from earlier work.
The nature of series [5]: Caco-2 cell transmembrane transport experiment. Particulars: human; for Papp B→A at 90 min, 10 μM: basolateral to apical. (In general: Passage across Caco-2 layers is used to estimate intestinal permeability.)
Text: (§3) In this experiment, a monolayer of Caco-2 cells was used to assess drug penetration. […] The apparent permeability coefficient from apical to basolateral (Papp A-B) and the basolateral to apical permeability coefficient (Papp B-A) of compounds represent the ability of the compound to be transported in both directions, respectively.
(§4) Apparent permeability coefficient (Papp)=(the volume of the receiver chamber/the filter surface area×culture time))×(the drug concentration of receiver chamber at the end of culture/(the drug concentration of donor chamber at the initial culture×dilution factor)
(§5) In this experiment, Millipore cell culture plates (PSHT 010 R5): membrane area=0.7 cm^2, recipient side volume=0.8 mL (A-to-B) or 0.4 mL (B-to-A), incubation time=90 minutes.
For series [6], the system named is Caco-2 cell. Description: Caco-2 cell transmembrane transport experiment. Particulars: 10 μM, pH 7.4, 37° C., 90 min.
Text: as §3, §4, §5
Series [7] relates to MIA Paca2 T2 xenograft tumor. Briefly: MIA Paca2 T2 human pancreatic cancer xenograft mouse subcutaneous model. The conditions noted are these: for effect on tumor (in words): 28 days oral, 73-1 50 mg/kg bid, AMG510 100 mg/kg qd.
Experimental: MIAPaca2 cells were cultured to sufficient numbers in DMEM containing 10% fetal bovine serum and 2.5% horse serum, then harvested. 5 million cells suspended in 0.1 mL of serum-free medium and Matrigel (1:1, v/v) were injected subcutaneously into the right flank area of each mouse, carefully avoiding blood vessels and serially passaged 2 times in animals. The size of the tumor was measured using a vernier caliper, and the method for calculating the tumor volume and T/C value was the same as above. […] The compounds were respectively dissolved in 30% sulfobutyl-β-cyclodextrin (SBE-β-CD) and 1.5 equivalent of 1 M HCl (pH 4-5) at the corresponding concentrations. 10 mL/kg was orally administered continuously by gavage for 28 days.
Series [8] deals with T1, KRAS-G12C/SOS1 (Homo sapiens, UniProt P01116, G12C).
T1 construct: purchased Cisbio #63ADK000CB16PEG
T1 sequence (P01116 1-188 isoform P01116-2 G12C): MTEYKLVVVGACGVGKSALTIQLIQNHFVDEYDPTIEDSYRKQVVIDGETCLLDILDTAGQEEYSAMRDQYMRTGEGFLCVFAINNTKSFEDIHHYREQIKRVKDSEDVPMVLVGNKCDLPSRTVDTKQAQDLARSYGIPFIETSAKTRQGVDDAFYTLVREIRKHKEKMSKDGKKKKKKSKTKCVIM
Briefly: HTRF KRAS-G12C/SOS1 binding assay. The conditions noted are these: 2 hours room temperature. (In general: Time-resolved FRET reads energy transfer from a long-lived donor to a nearby acceptor.)
Experimental: 2) Diluted the compound to be tested with diluent into 10× stock solution, starting from a concentration of 10000 nM, diluting in 4-fold gradient and a total of 6 concentration gradients.
After incubated at room temperature for 15 minutes, added pre-mixed 5 uL of anti-Tag1-Tb^3+ and 5 uL of anti-Tag2-XL665. Sealed the plate and incubated at room temperature for 2 hours.
Data were processed by using Graphpad prism software.

The subject of series [9] is H358 (KRAS G12C). Description: Tumor cell proliferation inhibition assay (CellTiter-Glo), H358. The conditions noted are these: Homo sapiens, NCI-H358, 72 h, 10% fetal bovine serum. The class given is cell-based, Human. The procedure, abridged:
(§2)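 Growth was read as ATP by CellTiter-Glo luminescence, with inhibition normalised to DMSO (max) and medium-only (min) wells. IC50 came from sigmoidal dose-response fits.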

The subject of series [10] is MIA-Paca2 (KRAS G12C). Description: Tumor cell proliferation inhibition assay (CellTiter-Glo), MIA-Paca2. The class given is cell-based, Human. The conditions noted are these: 72 hours, 10% fetal bovine serum. The procedure, abridged: as §2
The subject of series [11] is H23 (KRAS G12C). Briefly: Tumor cell proliferation inhibition assay (CellTiter-Glo), H23. The series is classed as cell-based, Human. The conditions noted are these: Homo sapiens, 72 h, 10% fetal bovine serum. The procedure, abridged:
as §2

Series [12] relates to H358 xenograft tumor. Description: H358 xenograft model, dose-response of compound 73-1. The class given is in vivo, BALB/c nude mice. Particulars: po, qd, 28 days. On the procedure: as §1
In the dose-response study of compound 73-1 inhibiting the growth of H358 xenograft tumors, when the H358 tumor volume reached an average of about 183 mm^3, the animals were respectively divided into different treatment groups, including vehicle (30% sulfobutyl-β-Cyclodextrin) control group, compound 73-1 orally administered group with doses of 12.5 mg/kg, 25 mg/kg, 50 mg/kg, and 100 mg/kg (n=8/group), administered once every day. […] All the groups were administered continuously for 28 days with 10 mL/kg oral administration.

[13] abbreviates: 13 evaluable patients, highest dose of 960 mg.
The mark [14] stands for this setting: Caco-2, pH 7.4, Papp A-B Sample_01, 10 μM, pH 7.4, 37° C., 90 min, apical to basolateral.
Where [15] appears, read: Caco-2, pH 7.4, Papp A-B Sample_02, 10 μM, pH 7.4, 37° C., 90 min, apical to basolateral.
Setting [16] is: Caco-2, pH 7.4, Papp A-B mean value, 10 μM, pH 7.4, 37° C., 90 min, apical to basolateral.
[17] abbreviates: Caco-2, pH 7.4, Papp B-A Sample_01, 10 μM, pH 7.4, 37° C., 90 min.
[18] abbreviates: Caco-2, pH 7.4, Papp B-A Sample_02, 10 μM, pH 7.4, 37° C., 90 min.
Setting [19] is: Caco-2, pH 7.4, Papp B-A mean value, 10 μM, pH 7.4, 37° C., 90 min.

The term AUC(0-inf) denotes total exposure, with the tail of the curve extrapolated. As usually defined, the Cmax is the maximum level reached in the sampled fluid or tissue. For orientation: Tmax means the time at which the peak concentration occurs. For orientation: half-life means the time in which the quantity being followed falls by half. Read a low half-life as rapid decline. By Papp A→B is commonly meant how fast a substance crosses the layer from the apical side. The Papp B→A is the apparent permeability from the basolateral to the apical side of a cell layer. On to `C=CC(=O)N1CCN(c2nc(=O)n(-c3c(C)ccnc3C(C)C)c3nc(-c4c(O)cccc4F)c(F)cc23)[C@@H](C)C1` (atropisomer, axis not shown) [AMG510, reference compound], for which, in [1], the area under the curve AUC(0-inf) was determined as 3430 ng·h/mL, the maximum concentration (Cmax) came to 3250 ng/mL, the Tmax amounted to 0.33 h and the half-life was 6.76 h. In addition, the AUC(0-t) in [1] is 3370 ng·h/mL. Moreover, in [2], the “Changes of body weight (%)” value came out at 16.4%, the “effect on tumor (in words)” value is on record as “shrink the tumor” and the “tumor suppressor T/C value (%)” value is −93.8%. In series [3] (setting [13]), the DCR was 100%, the ORR is 54% and the “partial response (PR)” value was 54%. In series [3] (23 evaluable NSCLC patients), the “disease control rate (DCR)” value is on record as 96%, the “objective response rate (ORR)” value is reported as 48%, the “partial response (PR)” value was 48% and the “progressive disease (PD)” value was 4%. In addition, in series [3] (phase I patients), the “dose-limiting toxicity and adverse reactions above grade IV” value was “No dose-limiting toxicity (DLT) and drug-related adverse reactions above grade IV were found”; the “tolerability (in words)” value is given as “well tolerated”. Further, the “mice whose tumor completely disappeared” value in series [4] is 10%. Also, the Papp A→B at 90 min, 10 μM in [5] (setting [14]) was found to be 5.83 ×10⁻⁶ cm/s. This compound also came in with a Papp A→B at 90 min, 10 μM in [5] (setting [15]) of 4.94 ×10⁻⁶ cm/s. Besides, the Papp A→B at 90 min, 10 μM in series [5] (setting [16]) stood at 5.39 ×10⁻⁶ cm/s. Further, in [5] (setting [17]), the basolateral-to-apical permeability (Papp B→A) at 90 min, 10 μM is 27.9 ×10⁻⁶ cm/s. For the same compound, the Papp B→A at 90 min, 10 μM in series [5] (setting [18]) is 39.1 ×10⁻⁶ cm/s. Also, the Papp B→A at 90 min, 10 μM in series [5] (setting [19]) was 33.5 ×10⁻⁶ cm/s. For the same compound, the “efflux rate Papp(B-A)/Papp(A-B)” value in series [6] is listed as 6.22. Besides, the “Changes of body weight (%)” value in series [7] (100 mg/kg, po, qd, 28 days) was determined as 13.8%. Moreover, the “effect on tumor (in words)” value in series [7] is “shrink the tumor”.

In general, IC50 refers to the concentration that inhibits the measured activity by half. The low end stands for greater potency in that assay, the high end for weaker potency in that assay. Usually efflux ratio stands for a quotient of directional permeabilities that is used to spot active efflux. `C=CC(=O)N1CCN(c2nc(=O)n(-c3c(C)ccnc3C(C)C)c3nc(-c4c(F)ccc5ccoc45)c(Cl)cc23)[C@@H](C)C1` (single isomer, unassigned) [Compound 73-1]: the IC50 is below 50 nM in series [8], below 10 nM in series [9], below 10 nM in series [10] and below 10 nM in series [11]. Besides, the AUC(0-inf) in [1] is 4320 ng·h/mL. The highest level in series [1] (Cmax) was 1750 ng/mL. Also, in series [1], the Tmax was found to be 0.67 h. In series [1], this compound gave a half-life of 3.23 h. In addition, in series [1], the AUC(0-t) stood at 4300 ng·h/mL. For the same compound, the “Changes of body weight (%)” value was 10.1% in series [2]; −0.2% in series [12] (12.5 mg/kg); −0.1% in series [12] (25 mg/kg); 2.2% in [12] (50 mg/kg); 1.9% in series [12] (100 mg/kg); 10.2% in series [7] (50 mg/kg, po, bid, 28 days). The “effect on tumor (in words)” value in [2] and in series [7] was “cause the tumor to disappear completely” throughout. In addition, the “tumor suppressor T/C value (%)” value in [2] is recorded as −100.0%. The “Antitumor activity T/C value (%)” value in series [12] (12.5 mg/kg) is −68.5%; in series [12] (25 mg/kg), −74.0%; in series [12] (50 mg/kg), −93.5%; in [12] (100 mg/kg), −96.6%; in series [7] (50 mg/kg, po, bid, 28 days), −100%. For the same compound, the “clinical symptoms and body weight (in words)” value in series [12] (12.5, 25, 50 and 100 mg/kg, versus vehicle control) is “no significant clinical symptoms and no significant changes in body weight”. Also, in series [12] (12.5-100 mg/kg), the “effect on tumor growth (in words)” value is “inhibited the growth of H358 tumor in a dose-dependent manner and could cause partial disappearance of tumor”. The “tolerability (in words)” value in series [12] (12.5-100 mg/kg) was “well tolerated”. Further, the efflux ratio at 90 min, 10 μM in [5] (Caco-2, pH 7.4) was found to be 1.12. Besides, the Papp A→B at 90 min, 10 μM in series [5] (setting [14]) is 16 ×10⁻⁶ cm/s; in series [5] (setting [15]), 20.8 ×10⁻⁶ cm/s; in series [5] (setting [16]), 18.4 ×10⁻⁶ cm/s; in series [5] (Caco-2, pH 7.4, apparent permeability coefficient Papp A-B, Caco-2) it was above 10 ×10⁻⁶ cm/s. Further, the Papp B→A at 90 min, 10 μM in [5] (setting [17]) came out at 17.2 ×10⁻⁶ cm/s; in series [5] (setting [18]), 24 ×10⁻⁶ cm/s; in series [5] (setting [19]), 20.6 ×10⁻⁶ cm/s.

As for pembrolizumab: PD-1 antibody, in series [4], the “mice whose tumor completely disappeared” value was 10%.

(Values after patent US20220389013A1, “PYRIDOPYRIMIDINONE COMPOUNDS AND APPLICATIONS THEREOF” (BeBetter Med Inc., priority 2020, published 2022).)
